Laboratory results published in patent US7371563B2, “Peelable and resealable devices for biochemical assays” (Surface Logix, Inc., priority 2000, dated 2008).

Target: T1, β1,4-galactosyltransferase (Bos taurus, UniProt P08037)
T1 sequence (P08037 1-402): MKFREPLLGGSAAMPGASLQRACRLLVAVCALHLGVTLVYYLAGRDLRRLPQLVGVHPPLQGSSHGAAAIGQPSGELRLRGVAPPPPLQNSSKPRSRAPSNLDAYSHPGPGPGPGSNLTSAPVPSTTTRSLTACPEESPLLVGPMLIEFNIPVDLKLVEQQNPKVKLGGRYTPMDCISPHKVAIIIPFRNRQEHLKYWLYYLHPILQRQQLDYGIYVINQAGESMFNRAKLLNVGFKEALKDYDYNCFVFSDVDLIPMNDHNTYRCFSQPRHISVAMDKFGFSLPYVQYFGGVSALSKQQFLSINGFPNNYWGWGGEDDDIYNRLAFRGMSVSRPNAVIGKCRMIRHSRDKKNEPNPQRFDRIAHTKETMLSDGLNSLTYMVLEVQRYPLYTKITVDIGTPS
Test: Glycosyltransferase assay on immobilized carbohydrates
Type: biochemical, bovine
Conditions: immobilized carbohydrate; UDP [^14C] galactose, 3.5 μM; phosphorimaging
Protocol: FIG. 41 represents the results of a glycosyltransferase assay. The surface comprises 3 different carbohydrate substrates defined by columns and a control column (no substrate). Each row was reacted with a different concentration of β1,4-galactosyltransferase and a constant concentration of sugar donor (UDP [^14C] galactose, 3.5 μM). The reaction was detected by phosphorimaging.
Referring to FIG. 41, in the glycosyltransferase assay, various carbohydrates were immobilized using a thiol chemical tag to bond to a monolayer thiolate bearing a maleimide group. A glycosyltransferase enzyme was added to the immobilized carbohydrates. The ability of the enzyme to add radioactively labeled sugars to the immobilized carbohydrates was measured. In the glycosyltransferase assay the enzyme that was employed is bovine recombinant β 1,4-galactosyltransferase. Preferably, the enzyme is at a concentration of about 10 pM to about 100 uM. More preferably, the enzyme is at a concentration of about 100 pM to about 1 uM. […]
Detection of glycosylation of the immobilized carbohydrate substrates on the base plate was performed radiometrically. The incorporation of ^14C was quantified by exposing a storage phosphor screen to the plate and then imaging it on a Variable Mode Imager (Typhoon 8600; Molecular Dynamics, Sunnyvale, Calif.). […]

`CC(=O)N[C@H]1C(O)O[C@H](CO)[C@@H](O)[C@@H]1O` (stereo partly shown) [GlcNAc] was tested, and the “substrate for β1,4-galactosyltransferase” value was “only the immobilized GlcNAc was a substrate”.
